Values quoted from earlier work, collected in patent publication US10983136B2 (DiaSorin S.p.A., priority 2013, dated 2021).

Assays:
[1] = in circulation, under normal circumstances
[2] = biological target: T1, vitamin D binding protein (DBP) (Homo sapiens, UniProt P02774); conditions: association constant
T1 sequence (P02774 17-474): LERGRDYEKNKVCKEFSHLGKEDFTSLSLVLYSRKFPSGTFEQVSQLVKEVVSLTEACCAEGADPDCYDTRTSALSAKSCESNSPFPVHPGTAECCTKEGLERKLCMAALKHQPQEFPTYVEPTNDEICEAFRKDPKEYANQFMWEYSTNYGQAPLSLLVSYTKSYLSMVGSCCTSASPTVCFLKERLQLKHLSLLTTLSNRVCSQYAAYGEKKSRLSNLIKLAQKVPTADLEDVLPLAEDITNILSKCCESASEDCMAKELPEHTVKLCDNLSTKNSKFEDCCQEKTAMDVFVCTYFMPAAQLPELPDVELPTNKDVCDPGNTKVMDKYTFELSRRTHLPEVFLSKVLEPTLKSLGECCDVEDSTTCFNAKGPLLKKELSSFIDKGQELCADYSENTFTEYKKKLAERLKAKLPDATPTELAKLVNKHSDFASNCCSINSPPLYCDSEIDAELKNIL

[3] = biological target: T1, vitamin D binding protein (DBP); conditions: same pH value (above 6, preferably above 7)

Row | Compound | free form [1] | Ka (affinity of DBP) [2] | greater affinity of DBP for 25(OH)D over 1,25(OH)2D [3]
1 | C=C1/C(=C\C=C2/CCC[C@]3(C)[C@@H]([C@H](C)CCCC(C)(C)O)CC[C@@H]23)C[C@@H](O)C[C@@H]1O [1,25(OH)2D, 1,25-dihydroxyvitamin D] | approximately 0.4% | – | –
2 | C=C1CC[C@H](O)C/C1=C/C=C1\CCC[C@]2(C)[C@@H]([C@H](C)CCCC(C)(C)O)CC[C@@H]12 [25(OH)D, 25-hydroxyvitamin D] | approximately 0.03% | 5e+08 M⁻¹ | about 1000 fold
3 | vitamin D | – | 4e+07 M⁻¹ | –
